The results in this text go back to patent US20020091095A1, “Modulation of Fas and FasL expression” (priority 1999, published 2002).

In assay [1] the test system is FasL. As to the kind of experiment: FasL expression at the cell surface by flow cytometry, PBMCs. The settings on record: 100 μg/ml sequence, 48 h, treated vs control cells. It counts as cell-based, human. The method, then:
(§1) Peripheral blood mononuclear cells (hereinafter, “PBMCs”) were isolated from human blood by Ficoll-Hypaque (Amersham Pharmacia Biotech, Baie d'Urfée, Québec, Canada) density gradient centrifugation.
(§2) Cancer cells and PBMCs were seeded in 6 well flat-bottom microplates and were maintained at 37° C. in a 5% CO2 atmosphere. Unless stated otherwise, 2×10^5 cells/ml were incubated for 48 h with 0 μg/ml (control) or 100 μg/ml ([…]) (treated) of the sequences.
(§3) Fas and FasL expression were measured by flow cytometry using anti-Fas FITC-conjugated monoclonal antibodies and anti-FasL PE-conjugated monoclonal antibodies in a FACScalibur Flow Cytometer (Becton Dickinson, San Jose, Calif., USA) using the CELLQuest program (Becton Dickinson).
(§4) Results are expressed as percentage (%) increase in the expression of Fas and of FasL measured on treated cells compared to control cells.
On the technique in general: In flow cytometry, cells or beads pass a laser one at a time.

For assay [2], the system named is FasL. The experiment in a line: FasL expression at the cell surface by flow cytometry, T-24 cells. It counts as cell-based, human. Conditions: T-24 bladder cancer cells, 100 μg/ml sequence, 48 h, treated vs control cells. The method, then: as §2, §3, §4
(§5) T-24 bladder cancer cells are a p53 mutated human cell line T-24 cells (1.0×10^5 cells/ml) were incubated with the 6 base sequences shown in Table 4.

In assay [3] the test system is Fas. The experiment in a line: Fas expression at the cell surface by flow cytometry, MCF-7 cells. The class given is cell-based, human. Conditions: MCF-7 breast cancer cells, 100 μg/ml sequence, 48 h, treated vs control cells. The protocol:
as §2, §3, §4
(§6) MCF-7 human breast cancer cells are a caspase-3 negative, estrogen-dependent human solid tumor model.

The subject of assay [4] is Fas. The experiment in a line: Fas expression at the cell surface by flow cytometry, PBMCs. It counts as cell-based, human. Conditions: 100 μg/ml sequence, 48 h, treated vs control cells. The method, then:
as §1, §2, §3, §4

Assay [5] deals with FasL. The experiment in a line: FasL expression at the cell surface by flow cytometry, OVCAR-3 cells. The settings on record: OVCAR-3 ovarian cancer cells, 100 μg/ml sequence, 48 h, treated vs control cells. It counts as cell-based, human. The protocol:
as §2, §3, §4
(§7) OVCAR-3 ovarian cancer cells are a p53 mutated, p21/waf-1/Cip deleted, metastatic human solid tumor model.

The test system of assay [6] is Fas. As to the kind of experiment: Fas expression at the cell surface by flow cytometry, Jurkat cells. It counts as cell-based. Conditions: Jurkat human leukemia T cells, 100 μg/ml sequence, 48 h, treated vs control cells. The method, then:
as §2, §3, §4
(§8) Jurkat human leukemia T cells are an atypical multi-drug resistant human suspension tumor cell model.

Assay [7] relates to FasL. The experiment in a line: FasL expression at the cell surface by flow cytometry, MCF-7 cells. The class given is cell-based, human. The settings on record: MCF-7 breast cancer cells, 100 μg/ml sequence, 48 h, treated vs control cells. The method, then:
as §2, §3, §4, §6

Assay [8] concerns FasL. As to the kind of experiment: FasL expression at the cell surface by flow cytometry, SK-OV-3 cells. Conditions: SK-OV-3 ovarian cancer cells, 100 μg/ml sequence, 48 h, treated vs control cells. The class given is cell-based, human. The method, then: as §2, §3, §4
(§9) SK-OV-3 ovarian cancer cells are a p53 mutated, p21/waf-1/Cip deleted, p15^ink4B,p16^ink4 deleted metastatic human solid tumor model.

The subject of assay [9] is Fas. As to the kind of experiment: Fas expression at the cell surface by flow cytometry, OVCAR-3 cells. The class given is cell-based, human. Conditions: OVCAR-3 ovarian cancer cells, 100 μg/ml sequence, 48 h, treated vs control cells. The method, then:
as §2, §3, §4, §7

For assay [10], the system named is FasL. The experiment in a line: FasL expression at the cell surface by flow cytometry, UMUC-3 cells. It counts as cell-based, human. Conditions: UMUC-3 bladder cancer cells, 100 μg/ml sequence, 48 h, treated vs control cells. The protocol: as §2, §3, §4
(§10) UMUC-3 bladder cancer cells are a P-glycoprotein overexpressing human cell line.

The subject of a further assay is EAE. The experiment in a line: EAE in (SJL/J×PL/J) F1 mice induced with myelin basic protein. It counts as in vivo. The settings on record: for progression of EAE: sequence 1, 10 or 100 mg/kg + anti-Fas antibodies, for 3 days. The protocol:
Female (SJL/J×PL/J) F1 mice are injected subcutaneously in both femoral regions with an emulsion containing 0.5 mg of myelin basic protein (MBP) mixed with complete Freund's adjuvant. After 24 h, 400 ng of Bordetella pertussis toxin is administered intraperitoneally. On the day of onset (day 0), group 1 mice receive saline, group 2 mice receive 1, 10 or 100 mg/kg of SEQ. ID NO:5, group 3 mice receive 1, 10 or 100 mg/kg of SEQ. ID NO:16, group 4 mice receive 1, 10 or 100 mg/kg of SEQ. ID NO:17, group 5 mice receive 1, 10 or 100 mg/kg of SEQ. ID NO: 18, group 6 mice receive anti-Fas antibodies, group 7 mice receive 1, 10 or 100 mg/kg of SEQ. ID NO:5 +anti-Fas antibodies, group 8 mice receive 1, 10 or 100 mg/kg of SEQ. ID NO:16 +anti-Fas antibodies, group 9 receive 1, 10 or 100 mg/kg of SEQ. ID NO:17 +anti-Fas antibodies, group 10 mice receive 1, 10 or 100 mg/kg of SEQ. ID NO: 18 +anti-Fas antibodies for 3 days by intracistemal administration (20 μg/day). In these different groups, anti-Fas antibodies are administered at any dose in the range of about 0.003 to about 0.3 mg/kg. […] The efficacy of the SEQ. ID NO:5, the SEQ. ID NO: 16 and the SEQ. ID NO: 17 is dose-dependent.

In assay [11] the test system is Fas. As to the kind of experiment: Fas expression at the cell surface by flow cytometry, UMUC-3 cells. The class given is cell-based, human. The settings on record: UMUC-3 bladder cancer cells, 100 μg/ml sequence, 48 h, treated vs control cells. The method, then: as §2, §3, §4, §10
Assay [12] concerns Fas. The experiment in a line: Fas expression at the cell surface by flow cytometry, T-24 cells. It counts as cell-based, human. Conditions: T-24 bladder cancer cells, 100 μg/ml sequence, 48 h, treated vs control cells. The protocol:
as §2, §3, §4, §5

The subject of assay [13] is FasL. The experiment in a line: FasL expression at the cell surface by flow cytometry, LNCaP cells. The class given is cell-based, human. Conditions: LNCaP prostate cancer cells, 100 μg/ml sequence, 48 h, treated vs control cells. The protocol:
as §2, §3, §4
(§11) LNCaP prostate cancer cells are a TGF-beta 1 receptor negative, […], metastatic human solid tumor model.

Assay [14] concerns FasL. As to the kind of experiment: FasL expression at the cell surface by flow cytometry, Jurkat cells. The settings on record: Jurkat human leukemia T cells, 100 μg/ml sequence, 48 h, treated vs control cells. The class given is cell-based. The method, then:
as §2, §3, §4, §8

Assay [15] deals with Fas. The experiment in a line: Fas expression at the cell surface by flow cytometry, SK-OV-3 cells. It counts as cell-based, human. The settings on record: SK-OV-3 ovarian cancer cells, 100 μg/ml sequence, 48 h, treated vs control cells. The method, then:
as §2, §3, §4, §9

Assay [16] has as its system EL-4 murine T lymphoma cells. As to the kind of experiment: EL-4 murine T lymphoma implanted in C57/BL6 lpr/lpr mice. It counts as in vivo. The protocol:
EL-4 murine T lymphoma cells are implanted into C57/BL6 lpr/lpr (Fas negative mice). The mice are divided into 30 groups of 10 mice. On day 0, group 1 mice receive saline, group 2 mice receive 1, 10 or 100 mg/kg of SEQ. ID NO:5, group 3 mice receive 1, 10 or 100 mg/kg of SEQ. ID NO:16, group 4 receive 1, 10 or 100 mg/kg of SEQ. ID NO:17, group 5 mice receive 1, 10 or 100 mg/kg of SEQ. ID NO: 18, group 6 mice receive anti-Fas antibodies, group 7 mice receive 1, 10 or 100 mg/kg of SEQ. ID NO:5 +anti-Fas antibodies, group 8 mice receive 1, 10 or 100 mg/kg of SEQ. ID NO: 16 +anti-Fas antibodies, group 9 receive 1, 10 or 100 mg/kg of SEQ. ID NO:17 +anti-Fas antibodies, group 10 mice receive 1, 10 or 100 mg/kg of SEQ. ID NO:18 +anti-Fas antibodies. In these different groups, anti-Fas antibodies are administered at any dose in the range of about 0.003 to about 0.3 mg/kg. […] The efficacy of the SEQ. ID NO:5, the SEQ. ID NO: 16 and the SEQ. ID NO: 17 is dose-dependent.

Assay [17] has as its system Fas. The experiment in a line: Fas expression at the cell surface by flow cytometry, LNCaP cells. It counts as cell-based, human. Conditions: LNCaP prostate cancer cells, 100 μg/ml sequence, 48 h, treated vs control cells. The protocol:
as §2, §3, §4, §11

[18] abbreviates: sequence 1, 10 or 100 mg/kg + anti-Fas antibodies, vs all other groups.
[19] abbreviates: single agent (sequence 1, 10 or 100 mg/kg, or anti-Fas antibodies) vs group 1 (saline).

Take GGGAGG [SEQ ID NO:17]: the “% INCREASE FasL” value in the assay on FasL [1] is recorded as 356%; with FasL [2], 75%; in the assay on FasL [5], 59%; in the assay with FasL [7], 194%; in the assay on FasL [8] it was −16%; in the assay on FasL [10] it was 106%. Moreover, the “% INCREASE FasL” value in the assay with FasL [13] turned out to be 55%; in the assay with FasL [14], 91%. In addition, the “% INCREASE Fas” value with Fas [3] stood at 127%; in the assay on Fas [4], 266%; in the assay on Fas [6], 77%; with Fas [9] it was 49%; in the assay on Fas [11], 39%; with Fas [12] it was 124%. Also, the “% INCREASE Fas” value is −6% in the assay with Fas [15] and 48% with Fas [17]. In addition, the “efficacy, dose dependence” value in the assay with EAE (1, 10 or 100 mg/kg) is reported as “dose-dependent”; in [16] (1, 10 or 100 mg/kg) it was “dose-dependent”. In addition, the “progression of EAE” value with EAE was “least progression of EAE”. The values for the tumor mass result in assay [16] (setting [18]) and in assay [16] (setting [19]) were “least tumor mass” and “less tumor mass”, respectively.

Regarding GGGCGG [SEQ ID NO:18], the “% INCREASE FasL” value is reported as 850% in the assay on FasL [1]; 205% with FasL [2]; 142% in the assay with FasL [5]; 322% with FasL [7]; 42% in the assay with FasL [8]; 250% in the assay on FasL [10]. Besides, the “% INCREASE FasL” value was determined as 126% in the assay with FasL [13] and 356% in the assay with FasL [14]. Also, the “% INCREASE Fas” value in the assay with Fas [3] is 165%; in the assay with Fas [4] it was 523%; with Fas [6] it was 208%; in the assay on Fas [9], 65%; in the assay on Fas [11] it was 72%; in the assay on Fas [12], 139%. In addition, the “% INCREASE Fas” value was found to be 29% in the assay with Fas [15] and 55% with Fas [17]. For the same sequence, the “progression of EAE” value in the assay on EAE is recorded as “least progression of EAE”. Also, the values for the tumor mass result in [16] (setting [18]) and in assay [16] (setting [19]) were “least tumor mass” and “less tumor mass”, respectively.
